Experimental findings from ChEMBL document CHEMBL3045684, “Compatibility of traditional and novel acaricides with bumblebees (Bombus terrestris): a first laboratory assessment of toxicity and sublethal effects” (Pest Manag Sci, 2010) are described below.

By mortality is commonly meant the percentage killed.

The subject of assay [1] is Bombus terrestris. The assay can be described thus: Contact toxicity against worker Bombus terrestris (bumblebee) assessed as mortality at 75 mg a.i./l applied on the dorsal thorax measured up to 1 week. Format: functional, organism-based.
The subject of assay [2] is Bombus terrestris. The assay can be described thus: Toxicity against worker Bombus terrestris (bumblebee) assessed as mortality at 75 mg a.i./l, po administered through sugar water measured after 9 to 11 weeks. Format: functional, organism-based.
The test system of assay [3] is Bombus terrestris. The experiment in a line: Toxicity against worker Bombus terrestris (bumblebee) assessed as mortality at 75 mg a.i./l, po administered through sugar water for 11 weeks measured everyday for 3 days followed by once a week for 11 weeks. Format: functional.
For assay [4], the system named is Bombus terrestris. The experiment in a line: Contact toxicity against worker Bombus terrestris (bumblebee) assessed as mortality at 75 mg a.i./l applied on the dorsal thorax for 11 weeks measured everyday for 3 days followed by once a week for 11 weeks. Format: functional.
Assay [5] concerns Bombus terrestris. The experiment in a line: Toxicity against worker Bombus terrestris (bumblebee) assessed as reduction in reproduction at 75 mg a.i./l, po administered through pollen for 11 weeks measured once a week for 11 weeks. The assay is classed as functional, organism-based.
The subject of assay [6] is Bombus terrestris. The assay can be described thus: Contact toxicity against worker Bombus terrestris (bumblebee) assessed as reduction in reproduction at 75 mg a.i./l applied on the dorsal thorax for 11 weeks measured once a week for 11 weeks relative to control. Format: functional, organism-based.
The subject of assay [7] is Bombus terrestris. The assay can be described thus: Toxicity against worker Bombus terrestris (bumblebee) assessed as reduction in reproduction at 75 mg a.i./l, po administered through sugar water for 11 weeks measured once a week for 11 weeks relative to control. The assay is classed as functional, organism-based.
The test system of assay [8] is Bombus terrestris. The assay can be described thus: Toxicity against worker Bombus terrestris (bumblebee) assessed as mortality at 75 mg a.i./l, po administered through pollen for 11 weeks measured everyday for 3 days followed by once a week for 11 weeks. Format: functional.
In assay [9] the test system is Bombus terrestris. The assay can be described thus: Toxicity against worker Bombus terrestris (bumblebee) assessed as mortality at 125 mg a.i./l, po administered through pollen for 11 weeks measured everyday for 3 days followed by once a week for 11 weeks. Format: functional, organism-based.
Assay [10] relates to Bombus terrestris. The assay can be described thus: Toxicity against worker Bombus terrestris (bumblebee) assessed as mortality at 125 mg a.i./l, po administered through sugar water for 11 weeks measured everyday for 3 days followed by once a week for 11 weeks. Format: functional.
The test system of assay [11] is Bombus terrestris. The assay can be described thus: Contact toxicity against worker Bombus terrestris (bumblebee) assessed as mortality at 125 mg a.i./l applied on the dorsal thorax for 11 weeks measured everyday for 3 days followed by once a week for 11 weeks. The assay is classed as functional.
In assay [12] the test system is Bombus terrestris. The experiment in a line: Toxicity against worker Bombus terrestris (bumblebee) assessed as reduction in reproduction at 125 mg a.i./l, po administered through sugar water for 11 weeks measured once a week for 11 weeks relative to control. Format: functional, organism-based.
Assay [13] deals with Bombus terrestris. The experiment in a line: Toxicity against worker Bombus terrestris (bumblebee) assessed as reduction in reproduction at 125 mg a.i./l, po administered through pollen for 11 weeks measured once a week for 11 weeks. The assay is classed as functional, organism-based.
Assay [14] concerns Bombus terrestris. The experiment in a line: Contact toxicity against worker Bombus terrestris (bumblebee) assessed as reduction in reproduction at 125 mg a.i./l applied on the dorsal thorax for 11 weeks measured once a week for 11 weeks relative to control. Format: functional, organism-based.
Assay [15] deals with Bombus terrestris. The experiment in a line: Toxicity against worker Bombus terrestris (bumblebee) assessed as mortality at 400 mg a.i./l, po administered through sugar water measured up to 1 week. The assay is classed as functional, organism-based.
Assay [16] deals with Bombus terrestris. The experiment in a line: Toxicity against worker Bombus terrestris (bumblebee) assessed as mortality at 400 mg a.i./l, po administered through sugar water for 11 weeks measured everyday for 3 days followed by once a week for 11 weeks. Format: functional.
Assay [17] deals with Bombus terrestris. The assay can be described thus: Toxicity against worker Bombus terrestris (bumblebee) assessed as mortality at 400 mg a.i./l, po administered through pollen for 11 weeks measured everyday for 3 days followed by once a week for 11 weeks. Format: functional.
Assay [18] has as its system Bombus terrestris. The assay can be described thus: Contact toxicity against worker Bombus terrestris (bumblebee) assessed as mortality at 400 mg a.i./l applied on the dorsal thorax for 11 weeks measured everyday for 3 days followed by once a week for 11 weeks. Format: functional.
Assay [19] has as its system Bombus terrestris. The experiment in a line: Toxicity against worker Bombus terrestris (bumblebee) assessed as reduction in reproduction at 400 mg a.i./l, po administered through pollen for 11 weeks measured once a week for 11 weeks. The assay is classed as functional. Also noted: scale not given: the % may be the effect or the level left.
The subject of assay [20] is Bombus terrestris. The assay can be described thus: Toxicity against worker Bombus terrestris (bumblebee) assessed as reduction in reproduction at 400 mg a.i./l, po administered through sugar water for 11 weeks measured once a week for 11 weeks relative to control. Format: functional, organism-based.
Assay [21] concerns Bombus terrestris. The assay can be described thus: Contact toxicity against worker Bombus terrestris (bumblebee) assessed as reduction in reproduction at 400 mg a.i./l applied on the dorsal thorax for 11 weeks measured once a week for 11 weeks relative to control. The assay is classed as functional, organism-based.

Molecules are shown by their SMILES. Activity calls are given as the source filed them. No cut-off for these calls is given here.

As for `CC(C)(C)c1ccc(CSc2cnn(C(C)(C)C)c(=O)c2Cl)cc1` [PYRIDABEN], the result in [1], in assay [2], in [5] and in [7] was Active. The figures for the mortality at 75 µg/mL in assay [3], in [4] and in assay [8] were 95%, 50% and 90%, respectively. Besides, in [6], the result was inactive.
For the compound `O=C(NC(=O)c1c(F)cccc1F)Nc1ccc(CO/N=C(/c2ccc(Cl)cc2)C2CC2)cc1` [FLUCYCLOXURON], the result in assay [9] and in assay [12] was inactive. Besides, the figures for the mortality at 125 µg/mL in assay [10] and in [11] were 25% and under 25%, respectively. Besides, the outcome in assay [13] and in [14] was Active.
For the compound `Cc1ccc(/N=C/N(C)/C=N/c2ccc(C)cc2C)c(C)c1` [AMITRAZ], the outcome in [15] and in assay [20] was Active. Also, the mortality at 400 µg/mL is 95% in assay [16], 90% in assay [17] and under 25% in assay [18]. In addition, the Activity in [19] was 50%. Also, the result in [21] was inactive.
